Literature values in patent US9982005B2, “Macrolides and methods of their preparation and use” (President and Fellows of Harvard College, priority 2013, dated 2018).

Test system: panels of Gram-positive bacteria
Conditions: fluorine atom at position C2; cited from earlier work

Structure (SMILES): CC[C@H]1OC(=O)[C@@](C)(F)C(=O)[C@H](C)[C@@H](O[C@@H]2O[C@H](C)C[C@H](N(C)C)[C@H]2O)[C@](C)(OC)C[C@@H](C)C(=O)[C@H](C)[C@H]2N(CCCCn3cc(-c4cccc(N)c4)nn3)C(=O)O[C@]12C [solithromycin]
- increase in activity versus the non-fluorinated molecule: 4- to 16 fold
